According to patent publication US20050267182A1, “Urea derivatives as FLT-3 modulators” (Ambit Biosciences Corporation, priority 2003, published 2005):
pIC50: −log10 of the molar value.

Columns and labels:
[1] = target: T1, FLT3 (Homo sapiens, UniProt P36888); assay: Binding constant (Kd) measurement, phage-displayed kinase competition binding assay; settings: for Binding Assay: FLT3(DKIN): FLT3(DKIN) construct; for Binding Assay: FLT3(JMminus): FLT3(JMminus) construct
T1 construct: FLT3(DKIN); made in house
T1 sequence (P36888 610-943 limits assumed): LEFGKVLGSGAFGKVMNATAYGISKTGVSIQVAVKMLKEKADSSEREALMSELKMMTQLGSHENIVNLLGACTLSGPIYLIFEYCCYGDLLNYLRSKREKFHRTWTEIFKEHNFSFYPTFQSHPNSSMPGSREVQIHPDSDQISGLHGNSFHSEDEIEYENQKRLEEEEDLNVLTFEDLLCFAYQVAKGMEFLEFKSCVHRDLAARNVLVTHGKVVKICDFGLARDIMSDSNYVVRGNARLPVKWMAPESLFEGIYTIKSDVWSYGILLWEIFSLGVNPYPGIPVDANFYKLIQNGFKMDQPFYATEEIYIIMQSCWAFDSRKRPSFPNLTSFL
Excerpt: Binding Constant (Kd) Measurements for Small-Molecule-Kinase Interactions
The term “ND” represents non-determined values.

[2] = test system: MV4,11 cells; assay: FLT3 assay using MV4,11 cells (cellular proliferation, MTS); type: cell-based, human; settings: cell assay code CS0001
Procedure: The ability of FLT3 kinase inhibitors to inhibit cellular proliferation was also examined. MV4:11 was a cell line derived from a patient with acute myelogenous leukemia.
FLT3 Assay Using MV4,11 Cells
MV4,11 cells were grown in an incubator @ 37° C. in 5% CO2 in Medium 2 (RPMI, 10% FBS, 4 mM glutamine, Penn/Strep). The cells were counted daily and the cell density was kept between 1e5 and 8e5 cells/ml.
Day One: Enough cells were harvested for experiments to be conducted in 50 ml conical tubes. The harvested cells were spun at 500 g for 5 min at 4° C., the supernatant was then aspirated and the cells were resuspended in the starting volume of 1×PBS. The cells were again spun at 500 g for 5 min at 4° C. and the supernatant again aspirated. The cells were then resuspended in medium 3 (DMEM w/ glut, 10% FBS, Penn/Strep) to a density of 4e5 cells/ml and incubated (37° C. in 5% CO2 O/N.
Day Two: The cells were counted and enough medium 3 was added to decrease density to 2e5 cells/ml. 50 ul (10,000 cells) was aliquoted into each well of a 96 well optical plate using multichannel pipetman. The compound plate was then set up by aliquoting 3 μl of negative control (DMSO) into column 1 of a 96 well 300 ul polypropylene plate, aliquoting 3 μt of positive control (10 mM AB20121) into column 12 of plate, and aliquoting 3 μl of appropriate compounds from serial dilutions into columns 2-11. To each well, 150 μl of Medium 3 was added and 50 μl of compound/medium mixture from compound plate into rows of optical plate in duplicate. The cells were then incubated @ 37° C. in 5% CO2 for 3 days.
Day Five: MTS was thawed in a H2O bath. 20 μl of MTS was added to each well of optical plate and the cells were incubated (37° C. in 5% CO2 for 2 hours. The plate was then placed on a plate shaker for 30 seconds on high speed.

Compound | Binding Assay: FLT3(DKIN) [1] | Cell Assay: CS0001:IC50 [2] | pIC50 ([2]; Homo sapiens, MV4-11) | Binding Assay: FLT3(JMminus) [1]
CC(=O)c1ccc(NC(=O)Nc2cc(C(C)(C)C)on2)cc1 [Compound A20] | + + + | + + + | – | –
COC(=O)c1cccc(COc2ccc(NC(=O)Nc3cc(C(C)(C)C)on3)cc2)c1 [Compound G7] | + + + + | + + + | – | –
COc1cccc(COc2ccc(NC(=O)Nc3cc(C(C)(C)C)on3)cc2)c1 [Compound G13] | + + + + | + + + + | – | –
CC1CN(CCOc2ccc(NC(=O)Nc3cc(C(C)(C)C)on3)cc2)CCN1 (centres unmarked) [Compound G46] | + + | + + | – | –
O=C(c1cc2ccccc2[nH]1)c1cc2cc(O)ccc2[nH]1 | + + + + | + + + | – | –
Cc1ncccc1C(=O)Nc1ccc(NC(=O)Nc2cc(C(C)(C)C)on2)cc1 [Compound N145] | + + + + | + + + | – | –
CC(C)(C)c1cc(NC(=O)Nc2ccc(OCc3ccc(C(F)(F)F)cc3)cc2)no1 [Compound G6] | + + + + | + + + | – | –
Cc1ccc(-n2nc(C(C)(C)C)cc2NC(=O)Nc2ccc(OCCN3CCOC(CO)C3)c3ccccc23)cc1 (centres unmarked) [Compound G38] | + + + + | + + + | – | –
CC(C)(C)c1cc(NC(=O)Nc2ccc(OCCc3ccccn3)cc2)no1 [Compound G27] | + + + + | + + + | – | –
CC1CN(CCOc2ccc(NC(=O)Nc3cc(C(C)(C)C)on3)cc2)CC(C)O1 (centres unmarked) [Compound G42] | + + + | + + | – | –
CC(C)(C)c1cc(NC(=O)Nc2ccc(OCc3ccc(F)cc3Cl)cc2)no1 [Compound G18] | + + + + | + + + | – | –
Cc1ccc(COc2ccc(NC(=O)Nc3cc(C(C)(C)C)on3)cc2)cc1 [Compound G15] | + + + + | + + + + | – | –
Cn1cc(C(=O)Nc2ccc(NC(=O)Nc3cc(C(C)(C)C)on3)cc2)c(C(F)(F)F)n1 [Compound N20] | + + + + | + + + | – | –
CC(C)(C)c1cc(NC(=O)Nc2ccc(OCc3ccccc3C(F)(F)F)cc2)no1 [Compound G4] | + + + | + + | – | –
Cc1cc(NC(=O)[C@](C)(O)CSc2ccc(F)cc2)ccc1NC(=O)Nc1cc(C(C)(C)C)on1 [Compound N170] | – | + + + | – | + + + +
CC1CCCN(CCOc2ccc(NC(=O)Nc3cc(C(C)(C)C)on3)cc2)C1 (centres unmarked) [Compound G44] | + + | + + | – | –
CC(C)(C)c1cc(NC(=O)Nc2ccc(OCc3c(F)cccc3F)cc2)no1 [Compound G21] | + + + + | + + + + | – | –

Results, then the compound that gave them:

Binding Assay: FLT3(DKIN) [1] | Cell Assay: CS0001:IC50 [2] | pIC50 ([2]; Homo sapiens, MV4-11) | Binding Assay: FLT3(JMminus) [1] | Compound
+ + + | – | < 5.00 | – | CC(C)(C)c1cc(NC(=O)Nc2ccc(NC(=O)C3CCNCC3)cc2)no1 [Compound N150]
+ + + + | + + + | – | – | CC(=O)c1c[nH]c(C(=O)Nc2ccc(NC(=O)Nc3cc(C(C)(C)C)on3)cc2)c1 [Compound N43]
+ + | + + | – | – | CC(C)(C)c1cc(NC(=O)Nc2ccc(NC(=O)c3ccc(Br)cc3)cc2)no1 [Compound N27]
+ + + + | + + + | – | – | CC(C)(C)c1cc(NC(=O)Nc2ccc(C(=O)Nc3ccc(Cl)cc3)cc2)no1 [Compound N156]
– | + + | – | + + + | CC(C)c1nnsc1C(=O)Nc1ccc(NC(=O)Nc2cc(C(C)(C)C)on2)cc1 [Compound N182]
+ + + + | + + + | – | – | COc1ccc(NC(=O)Nc2cc(C(F)(F)F)cc(Cl)n2)cc1 [Compound Z71]
– | + + + | – | + + | CC(C)(C)c1cc(NC(=O)Nc2ccc(NC(=O)c3ccccc3O)cc2)no1 [Compound N69]
+ + + | + + + | – | – | CC(C)(C)c1cc(NC(=O)Nc2ccc(NC(=O)c3cccc4nc5cc(O)cc(O)c5cc34)cc2)no1 [Compound N139]
– | + + + | – | + + + | CC(C)(C)c1cc(NC(=O)Nc2ccc(NC(=O)Cc3noc4ccccc34)cc2)no1 [Compound N80]
– | + + + | – | + + + | CC(C)(C)c1cc(NC(=O)Nc2ccc(NC(=O)c3nnsc3Sc3ccc(C(F)(F)F)cc3)cc2)no1 [Compound N179]
+ + + + | + + + | – | – | COc1cccc(-c2ccc(C(=O)Nc3ccc(NC(=O)Nc4cc(C(C)(C)C)on4)cc3)o2)c1 [Compound N105]
+ + + + | + + + | – | – | CC(C)(C)c1cc(NC(=O)Nc2ccc(NC(=O)c3cccc(SC(F)F)c3)cc2)no1 [Compound N25]
– | + + | – | + + + | COc1cc(OC)nc(Oc2ccccc2C(=O)Nc2ccc(NC(=O)Nc3cc(C(C)(C)C)on3)cc2)n1 [Compound N70]
+ + + + | + + | – | – | Cc1[nH]c(C(=O)Nc2ccc(NC(=O)Nc3cc(C(C)(C)C)on3)cc2)c(C)c1CCC(=O)O [Compound N39]
+ + + | + + | – | – | Cc1nnsc1C(=O)Nc1ccc(NC(=O)Nc2cc(C(C)(C)C)on2)cc1 [Compound N18]
– | + + + | – | + + + | Cc1cc(NC(=O)c2cn3nc(Cl)ccc3n2)ccc1NC(=O)Nc1cc(C(C)(C)C)on1 [Compound N169]
+ + + + | + + + | – | – | CC(C)(C)c1cc(NC(=O)Nc2ccc(C(=O)Nc3ccccc3)cc2)no1 [Compound N90]
+ + + + | + + + | – | – | CC(C)(C)OC(=O)Nc1ccc(NC(=O)Nc2cc(C(C)(C)C)on2)cc1 [Compound N101]
+ + | + + | – | – | CC(C)(C)c1cc(NC(=O)Nc2ccc(NC(=O)c3ccc(OC(F)(F)F)cc3)cc2)no1 [Compound N30]
+ + + | + + | – | – | CC(C)(C)c1cc(NC(=O)Nc2ccc(NC(=O)c3ncccc3C(N)=O)cc2)no1 [Compound N6]
+ + | + + + | – | – | CC(C)(C)c1noc(-c2ccc(NC(=S)Nc3cc(C(C)(C)C)on3)cc2)n1 [Compound P6]
+ + + + | + + + + | – | – | CC(C)(C)c1cc(NC(=O)Nc2ccc(NC(=O)c3nccc4ccccc34)cc2)no1 [Compound N117]
– | + + | – | + + + + | CC(C)(C)c1cc(NC(=O)Nc2ccc(NC(=O)c3sccc3CCc3cccc(C(F)(F)F)c3)cc2)no1 [Compound N183]
+ + + + | + + + | – | – | CC(C)(C)c1cc(NC(=O)Nc2ccc(NC(=O)c3cnn(-c4cccc(Cl)c4)c3Br)cc2)no1 [Compound N45]
+ + | + + | – | – | C=C/C(=C\C=C\Cl)NC(=O)Nc1ccc(C(=O)OCCOC)cc1 [Compound Z54]
+ + + | + + + | – | – | COc1ccc(-c2noc(-c3ccc(NC(=O)Nc4cc(C(C)(C)C)on4)cc3)n2)c2ccccc12 [Compound P3]
– | + + | – | + + + | COc1cc(NC(=O)CCC(=O)N2CCNC(=O)CC2)ccc1NC(=O)Nc1cc(C(C)(C)C)on1 [Compound N172]
+ + + | + + | – | – | CC(C)(C)c1cc(NC(=O)Nc2ccc(NC(=O)c3cccc(Br)c3)cc2)no1 [Compound N24]
+ + + + | + + + + | – | – | CC(C)(C)c1cc(NC(=O)Nc2ccc(NC(=O)c3ncc[nH]3)cc2)no1 [Compound N13]
